Measurements as given in the supplement of paper PMC10307832.

Key:
Test in all cases: relative viability (nuclei count vs DMSO), 5 days (fraction); higher = more cells survive
[1] = compound: Cc1ccc2nc(NCCN)c3ncc(C)n3c2c1 + Nc1nc2[nH]cc(CCc3ccc(C(=O)N[C@@H](CCC(=O)O)C(=O)O)cc3)c2c(=O)[nH]1 [Pemetrexed] (partner 0.2 µM)
Procedure, shortened: (§1)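 Cells from lung cancer lines were seeded into 1536-well plates and, one day later, dosed by pin tool. Treatments were either a single drug or a fixed dose of an anchor drug with five library-drug doses (not always all listed) in √10 steps. After 5 days, nuclei were stained in a one-step fixation (final 0.05% Triton X-100, 1% formaldehyde, 1 ug/ml Hoechst) and counted on 4× images, and relative viability is the treated-to-vehicle nuclei ratio, as the median of duplicate plates.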

[2] = compound: Cc1ccc2nc(NCCN)c3ncc(C)n3c2c1 + Nc1ncn([C@H]2C[C@H](O)[C@@H](CO)O2)c(=O)n1 [Decitabine] (partner 2 µM)
Procedure, shortened: as §1

Salubrinal + Linsitinib = compound: O=C(/C=C/c1ccccc1)NC(NC(=S)Nc1cccc2cccnc12)C(Cl)(Cl)Cl [Salubrinal] + C[C@]1(O)C[C@@H](c2nc(-c3ccc4ccc(-c5ccccc5)nc4c3)c3c(N)nccn32)C1 [Linsitinib] (partner 1 µM)
Procedure, shortened: as §1

[3] = compound: Cc1ccc2nc(NCCN)c3ncc(C)n3c2c1 + N=C(N)NC(=N)NCCc1ccccc1 [Phenformin] (partner 250 µM)
Procedure, shortened: as §1

## UMC-11
[1]; first compound 0.04 µM
  relative viability: 0.858
[1]; first compound 0.1265 µM
  relative viability: 0.744
[1]; first compound 0.4 µM
  relative viability: 0.808
[1]; first compound 1.265 µM
  relative viability: 0.734
[1]; first compound 4 µM
  relative viability: 0.674
[2]; first compound 0.04 µM
  relative viability: 0.606
[2]; first compound 0.1265 µM
  relative viability: 0.432
[2]; first compound 0.4 µM
  relative viability: 0.59
[2]; first compound 1.265 µM
  relative viability: 0.679
[2]; first compound 4 µM
  relative viability: 0.624
Salubrinal + Linsitinib; first compound 0.08 µM
  relative viability: 1.25
Salubrinal + Linsitinib; first compound 0.253 µM
  relative viability: 0.807
Salubrinal + Linsitinib; first compound 0.8 µM
  relative viability: 1.21
Salubrinal + Linsitinib; first compound 2.53 µM
  relative viability: 0.998
Salubrinal + Linsitinib; first compound 8 µM
  relative viability: 0.955
[3]; first compound 0.04 µM
  relative viability: 0.352
[3]; first compound 0.1265 µM
  relative viability: 0.319
[3]; first compound 0.4 µM
  relative viability: 0.333
[3]; first compound 1.265 µM
  relative viability: 0.335
[3]; first compound 4 µM
  relative viability: 0.349
